Reference: patent US11357740B2, “Cannabidiol for enhancing the therapeutic effect of a steroid” (STERO BIOTECHS LTD., priority 2013, dated 2022)

How the values were obtained:
[1] = system: patients experiencing severe refractory chronic GVHD; assay: Case studies: CBD for severe refractory chronic GVHD; format: in vivo, human; conditions: person
Description: This example describes cases studies that show the surprising efficacy of CBD treatment of patients experiencing severe refractory chronic GVHD.
A person with acute lymphoid leukemia in first complete remission, underwent an allogeneic hematopoietic cell transplantation from a matched unrelated donor with myeloablative conditioning consisting of total body irradiation (12 Gray), cyclophosphamide and ATG (Fresenius, 15 mg/kg). The patient developed an overlap syndrome (concomitant acute plus chronic GVHD features) during the first month after transplantation which was treated with cyclosporine and steroids until complete remission. Immunosuppression was stopped 5 months after transplantation. Eighteen months after transplantation they developed chronic extensive GVHD with involvement of the oral cavity, eyes, liver, joints and skin. Skin involvement progressed to sclerosis. They started again cyclosporine and oral steroids with no improvement. There was no further improvement with imatinib (Gleevec). […] Unexpectedly, Prednisone effective therapeutic dose was tapered off up to 7.5-10 mg QD (20-50% reduction in the steroid's dose).
A person with acute myeloid leukemia in second complete remission underwent an allogeneic hematopoietic cell transplantation from a matched sibling donor with myeloablative conditioning consisting of busulfex (12.8 mg/kg) and cyclophosphamide (120 mg/kg). The patient experienced relapse in the central nervous system and breasts 12 months after transplantation, received chemo-radiotherapy and achieved complete remission. Shortly after remission, they developed chronic extensive GVHD with severe involvement of the eyes, joint and skin. Skin involvement progressed to severe sclerosis with limited range of motion of the joints. They were unresponsive to cyclosporine and oral steroids and therefore they were stopped after few months.

[2] = system: patients undergoing allogeneic hematopoietic stem cell transplantation; assay: Prevention of acute and chronic GVHD in allogeneic stem cell transplanted patients (46 patients); format: in vivo, human; set-up: Non-relapse mortality / Overall survival rate: concentration or dose not given beside the values
Description: Forty six (46) patients over 18 years of age undergoing allogeneic hematopoietic stem cell transplantation at the Rabin Medical Center in Israel were recruited. Patients having history of psychosis or asthma, or consuming Cannabis during the last two months before transplantation were excluded from the study.
All patients received standard GVHD prophylaxis consisting of cyclosporine twice a day starting on day −1 with target trough levels ≥200 ng/mL in combination with short course of methotrexate (15 mg/sqm on day +1 and 10 mg/sqm on days +3 and +6). Most patients transplanted from unrelated donors received anti-T-cell globulin (ATG Fresenius) at a low dose of 5 mg/kg on days −3 to −1.
The investigational agent, CBD (STI Pharmaceuticals, Brentwood, Essex, UK) was dissolved in olive oil at a concentration of 2.5% and was orally administered from day −7 through day +30. The starting dose of CBD was 10 mg twice a day, and doses were doubled every other day to a maximal dose of 150 mg twice a day.
To estimate the prophylactic and therapeutic effect of Cannabidiol, the patients were carefully monitored and documented for the presentation of acute and chronic GVHD symptoms, the time of onset, the severity of the symptoms, the responsiveness to treatment, and the occurrence of infections.
Furthermore, a panel of 4 serum cytokines (soluble TNF receptor 1 (sTNFRI), soluble IL-2 receptor alpha (sIL2R-alpha), hepatocyte growth factor (HGF), and IL8)) were monitored. Blood samples were taken at days −7(A), 0(B), +14(C), and +28(D). The difference in blood levels between the various time points (B-A, C-B and D-C) were assessed.
Primary end points were safety and cumulative incidence of grade 2-4 and grade 3-4 GVHD by day +100. The secondary end points were cumulative incidence of chronic and severe chronic GVHD, non-relapse mortality (NRM), relapse incidence (RI), and overall survival (OS). NRM mortality was defined as death while the patient was in CR. Cumulative incidence curves were used for acute GVHD and chronic GVHD estimation, taking into account relapse and death as competing risks. Cumulative incidence curves were used for RI and NRM taking into account disease recurrence and death as competing events. Probabilities of OS and LFS were calculated using the Kaplan-Meier estimates.

[3] = system: patients with extensive chronic GVHD after allogeneic HCT; assay: CBD treatment for chronic GVHD (12 patients); format: in vivo, human; conditions: oral CBD 50 mg twice a day
Description: Twelve patients over 18 years of age with extensive chronic GVHD after allogeneic HCT were recruited at the Rabin Medical Center in Israel. Patients having a history of psychosis or asthma, or consuming Cannabis during the last two months before transplantation were excluded from the study.
Patients were presently treated with a calcineurine inhibitor (cyclosporine or tacrolimus) with or without oral prednisone.
Patients were given oral CBD 50 mg twice a day.

[4] = system: patients experiencing severe acute GVHD; assay: Case studies: CBD for severe (grade 3-4) and/or refractory acute GVHD; format: in vivo, human
Description: This example describes cases studies that show the surprising efficacy of CBD treatment of patients experiencing severe acute GVHD.
A person with acute myeloid leukemia in second complete remission, underwent an allogeneic hematopoietic cell transplantation from a matched sibling donor with a myeloablative conditioning consisting of fludarabine (160 mg/m^2) and busulfex (12.8 mg/kg). One month post-transplantation they developed classic grade 4 acute GVHD of the gastro-intestinal tract (GIT) confirmed by intestinal biopsy. They were refractory to cyclosporine and high-dose steroids, and was then given second line therapy consisting of mycophenolate mofetil followed by extra-corporeal photopheresis (ECP), from which a partial response was obtained. The patient then developed severe myopathy and became bed restricted. During tapering off of steroids they had relapse of grade 4 acute GVHD with GIT and skin involvement. They were refractory to high-dose steroids and thus started oral cannabidiol (CBD) 150 mg twice a day. […] CBD was stopped several weeks later upon remission. […] Nevertheless, they developed chronic GVHD for which they were given low dose cyclosporine and low dose prednisone.
A person with Philadelphia positive acute lymphoid leukemia in first complete remission underwent an allogeneic hematopoietic cell transplantation from a matched unrelated donor with reduced intensity conditioning consisting of fludarabine (150 mg/m^2), busulfex (12.8 mg/kg) and ATG (Fresenius, 15 mg/kg). Two months after transplantation, they developed generalized erythroderma ranked as stage 3 and grade 2 acute GVHD of the skin, which was confirmed by skin biopsy. Due to refractoriness to tacrolimus, systemic and topical steroids they started ECP with some improvement but without remission. They were still on tacrolimus and steroids when 11 months post-transplantation they had severe worsening of their skin rash with generalized erythroderma and desquamation ranked as stage 4 and grade 4 acute GVHD of the skin. They started oral CBD 150 mg twice a day and prednisone 40 mg once a day. […] CBD was stopped 2 months later after obtaining complete remission of acute GVHD.
A person with acute myeloid leukemia in first complete remission, underwent an allogeneic hematopoietic cell transplantation from a matched sibling donor with myeloablative conditioning consisting of busulfex (12.8 mg/kg) and cyclophosphamide (120 mg/kg). Eight months post-transplantation, leukemia relapsed. They received salvage chemotherapy followed by donor lymphocyte infusion (DLI) and achieved a complete hematologic remission. One month post DLI they developed jaundice with bilirubin levels of 11.5 mg % (normal≤1 mg %) and biopsy proven late onset acute GVHD of the liver ranked as stage 3 and grade 3. They were refractory to high-dose steroids and started oral CBD 150 mg twice a day.

[5] = system: patient suffering from psychological or neurological disorders; conditions: doses of up to 1500 mg per day; cited from earlier work
[6] = system: patients with late onset acute GVHD given steroids; assay: Case studies: CBD reduces the effective dose of steroids (late onset acute GVHD); format: in vivo, human
Description: Person one with secondary acute myeloid leukemia in 1st complete remission, underwent and allogeneic hematopoietic cell transplantation from a matched unrelated donor with a myeloablative conditioning consisting of fludarabine (160 mg/m^2), busulfex (12.8 mg/kg) and ATG (Fresenius, 15 mg/kg). Eleven months after transplantation they developed jaundice with bilirubin level of 4.2 mg % and biopsy proven late onset acute GVHD of the liver ranked as stage 2 and grade 3. […] They started oral CBD 150 mg BID. […] Steroids could be tapered off to a low dose of 7.5 mg QD.
person two with refractory follicular lymphoma underwent an allogeneic hematopoietic cell transplantation from a matched unrelated donor with a reduced intensity conditioning consisting of fludarabine (150 mg/m^2), melphalan (100 mg/m^2) and ATG (Fresenius 15 mg/kg) and achieved a complete remission. Two years later they relapsed and received salvage immune-chemotherapy with bendamustine and rituximab followed by DLI and achieved a complete remission. One month later they were admitted with severe late onset acute GVHD with skin (rash) and upper (nausea and vomiting) plus lower gastrointestinal involvement (bloody diarrhea, crampy abdominal pain and severely inflamed and ulcerated mucosa). Biopsy proven GVHD was ranked as stage 3 of the skin and stage 4 and grade 4 acute GVHD of the GIT. They started cyclosporine and high-dose steroids. Despite skin response, GVHD of the GIT was refractory to prolonged systemic treatment of steroids. […] Prednisone was tapered off to 20 mg QD (40%)—found to be therapeutically effective.

[7] = of the 11 patients with chronic GVHD
[8] = with calcineurine inhibitor with or without oral prednisone
[9] = person, stage 3 grade 3 acute GVHD of the liver, oral CBD 150 mg twice a day

C=C(C)[C@@H]1CCC(C)=C[C@H]1c1c(O)cc(CCCCC)cc1O [CBD, 2-[(6R)-3-Methyl-6-prop-1-en-2-yl-1cyclohex-2-envyl]-5pentylbenzene-1,3-diol]
clinical response, chronic extensive GVHD with severe sclerosis ([1]; cyclosporine and oral steroids stopped, oral CBD 75 mg BID, after several months): significant improvement of their skin and joints range of motion
clinical response, chronic extensive GVHD (oral cavity, eyes, liver, joints, skin sclerosis) ([1]; no improvement with cyclosporine, oral steroids, imatinib, oral CBD 75 mg twice a day, after several weeks): resolved their liver and oral GVHD and significantly improved skin sclerosis and joint range of motion
Prednisone effective therapeutic dose tapered off up to ([1]; oral CBD 75 mg twice a day): 7.5-10 mg QD
reduction in the steroid's dose ([1]; oral CBD 75 mg twice a day): 20-50%
Cumulative incidence of relapse ([2]; 6 months after HCT): 22%
Non-relapse mortality ([2]; 6 months after HCT): 11.6%
Overall survival rate ([2]; 6 months after HCT): 76%
Cumulative incidence of relapse ([2]; 12 months after HCT): 31%
Non-relapse mortality ([2]; 12 months after HCT): 11.6%
Overall survival rate ([2]; 12 months after HCT): 70%
patients who developed grade 2 to 4 acute GVHD ([2]; 46 patients recruited, CBD prophylaxis): Six
Cumulative incidence of relapse ([2]; 100 days after HCT): 12%
Non-relapse mortality ([2]; 100 days after HCT): 8.1%
Overall survival rate ([2]; 100 days after HCT): 84%
effect on incidence and severity of GVHD (conclusion) ([2]; after allogeneic stem cell transplantation): reduces the incidence and severity of acute and chronic GVHD
patients in whom chronic GVHD occurred ([2]; among patients surviving more than 100 days after HCT (n=33)): 11 patients
Cumulative incidence rate of extensive chronic GVHD ([2]; at 1 year): 19%
Cumulative incidence rate of overall chronic GVHD ([2]; at 1 year): 43%
Cumulative incidence rate of grade 2 to 4 acute GVHD ([2]; at day 100): 12.4%
Cumulative incidence rate of grade 3 to 4 acute GVHD ([2]; at day 100): 5%
patients with limited chronic GVHD [2, 7]: 8 patients
patients with severe chronic GVHD [2, 7]: 3 patients
grade 3 to 4 toxicities related to CBD ([2]; oral CBD 2.5% in olive oil, day -7 to +30, 10 mg up to 150 mg twice a day, with cyclosporine + methotrexate prophylaxis): No grade 3 to 4 toxicities related to CBD were observed
toxicity and psychotropic effects (conclusion) ([2]; preventing acute and chronic GVHD): low toxicity and lack of psychotropic effects
Median time to onset of grade 2 to 4 acute GVHD ([2]; range 41 to 150 days): 60 days
median time to onset of chronic GVHD ([2]; range 125 to 335 days): 159 days
effect on severity of chronic GVHD (conclusion) [3]: reduces the severity of chronic GVHD
clinical improvement, patients with lung involvement [3, 8]: 2 out of 3
clinical improvement, patients with oral involvement [3, 8]: 3 out of 3
clinical improvement, patients with skin involvement [3, 8]: 6 out of 8
effect on refractory steroid dose (conclusion of case studies) ([4]; acute Grade 3 and Grade 4 GVHD): rendered a refractory dose of a steroid-therapeutically effective
clinical response, grade 4 acute GVHD with GIT and skin involvement ([4]; person, refractory to high-dose steroids, oral CBD 150 mg twice a day, after 14 days): complete cessation of diarrhea and resolution of their skin rash
bilirubin level after treatment ([4]; person, stage 3 grade 3 acute GVHD of the liver, baseline 11.5 mg %, refractory to high-dose steroids, oral CBD 150 mg twice a day): 0.7-1.3 mg %
jaundice [4, 9]: resolved within few days
steroid tapering [4, 9]: tapered off until complete cessation
acute GVHD status at follow-up ([4]; person, eighteen months following cessation of treatment): no symptoms or signs of acute GVHD
skin rash and desquamation, stage 4 and grade 4 acute GVHD of the skin ([4]; person, oral CBD 150 mg twice a day and prednisone 40 mg once a day, on tacrolimus): improved promptly until complete resolution
adverse effects in clinical studies [5]: without any significant adverse effects
jaundice and bilirubin, stage 3 and grade 3 acute GVHD of the liver ([6]; person one, bilirubin 8.5 mg % on tacrolimus and steroids, oral CBD 150 mg BID): Jaundice resolved gradually and bilirubin dropped to normal levels
steroid dose tapered off to ([6]; person one, oral CBD 150 mg BID): 7.5 mg QD
clinical response, stage 4 and grade 4 acute GVHD of the GIT ([6]; person two, refractory to prolonged systemic steroids, oral CBD 150 mg BID with steroids): very good partial response (VGPR)
response upon renewal of treatment ([6]; person two, methylprednisolone 0.5 mg/kg QD and CBD 150 mg BID): A second VGPR was obtained
Prednisone tapered off to ([6]; person two, oral CBD 150 mg BID): 20 mg QD
Prednisone tapered dose, printed percentage ([6]; person two, oral CBD 150 mg BID, prednisone 20 mg QD): 40%
outcome after discontinuing CBD ([6]; person two, two months later, CBD discontinued without doctors' approval): diarrhea resumed following discontinuing CBD
